Results reported in US4400517A, “Phosphoric esters derived from 1,2,4-triazole having an insecticidal, nematocidal and acaricidal action, and their preparation” (priority 1976, dated 1983).
Where two headings read alike, the source gives them in different places.

Tests used:
Pieris brassicae = test: Biological activity on Pieris brassicae (Lepidoptera); assay type: in vivo; details: 48 h
Method: (2) Biological activity on Pieris brassicae (Lepidotera)
Cut-off cauliflower leaves were sprinkled with an aqueous dispersion of the products under examination (see TABLE 5).
After drying, the leaves were infested with 5-day old larvae. The percentage of mortality of the larvae (untreated leaves=0) was determined after 48 hours from treatment.

[1] = system: Leptinotarsa decemlineata; test: Biological activity on Leptinotarsa decemlineata (Coleoptera); assay type: in vivo
Method: (3) Biological activity on Leptinotarsa decemlineata (Coleoptera)
Small potato plants grown in pots were infested with 4-day old larvae, and were then sprinkled with an aqueous dispersion of the products under examination (see Tables 4 and 5).
The mortality percentage (untreated small plants=0) was determined after 48 hours from treatment.

Culex pipiens = test: Biological activity on Culex pipiens larvae (Diptera); assay type: in vivo
Method: (4) Biological activity on Culex pipiens (Diptera)
Into glasses containing an aqueous dispersion of the products under examination (see Tables 4 and 5) there were introduced mosquito larvae of third and fourth age.
The mortality percentage of the larvae (glasses containing pure water=0) was determined after 24 hours from treatment.

Tetranychus urticae [2] = test: Biological activity on adults of Tetranychus urticae (Acari); assay type: in vivo
Method: (5) Biological activity on adults of Tetranychus urticae (Acari)
Discs of bean leaves were infested with adult acari and then sprinkled with an aqueous dispersion of the products under examination (see Tables 4 and 5).
The mortality percentage was determined after 24 hours from treatment (untreated leaf discs, mortality=0).

Spodoptera littoralis = test: Biological activity on Spodoptera littoralis (Lepidoptera); assay type: in vivo
Method: (7) Biological activity on Spodoptera littoralis (Lepidoptera)
Cut tobacco leaves were sprinkled with an aqueous dispersion of the products under examination (see Tables 4 and 5).
After drying, the leaves were infested with 5-day old larvae.
The percentage of mortality of the larvae was determined after 48 hours from treatment (untreated leaves, mortality=0).

Meloidogyne icognita = test: Biological activity on Meloidogyne icognita (Nematoda); assay type: in vivo; details: 20 ppm; Table 4
Method: (8) Biological activity on Meloidogyne icognita (Nematoda)
A 1:1 mixture of field soil and sand, infested with newborne larvae and eggs of Nematoda, were treated, by uniform admixing, with an aqueous dispersion of the products under examination (see Tables 4 and 5). The soil was then distributed into plastic pots, and after 5 days in each pot there were planted 5 small tomato plants about 20 cm high.
The results were recorded 21 days after the transplanting.
The nematocidal activity was expressed as the percentage reduction of infestation with respect to the witness (small plants transplanted into a non-treated soil, activity=0).

Hilemyia brassicae = test: Biological activity on Hilemyia brassicae (Diptera); assay type: in vivo; details: Table 4
Method: (9) Biological activity on Hilemyia brassicae (Diptera)
Samples of soil were treated by uniform mixing with an aqueous dispersion of the products under examination (see Tables 4 and 5). The soil was then divided into two pots and in each of these 4 small radish plants were transplanted. The plants were subsequently infected by putting to the soil 50 Diptera eggs in the middle of the surface of the pots.
The results were recorded 10 days after treatment by extracting the plants from the soil and by counting the number of larvae present on the roots and on the surrounding soil.
The insecticidal activity was expressed as percentage of reduction of the infestation in comparison with the witness plants (plants transplanted into untreated soil, activity=0).

Blatta orientalis = test: Biological activity on Blatta orientalis (Ortoptera); assay type: in vivo; details: for % ge of activity, Blatta o.: Table 4, 2880 min; for mortality at 0.01 g/m2 / mortality at 1 g/m2: Blatta orientalis, 48 h, read-out: Activity (mortality class), Blatta O.
Method: (10) Biological activity on Blatta orientalis (Ortoptera)
The bottom and walls of glass crystallizers were treated uniformly with an acetonic solution of the products under examination (see Tables 4 and 5). After evaporation of the solvent, into each crystallizer were introduced ten 80-100 days old neanides. The crystallizers were then closed with a metal net cover. After 24 hours from the start of the treatment, the insects were transferred to similar untreated crystallizers, and there were appropriately nourished in conventional manner.
The percentage of mortality (untreated insects=0) was determined after 48 hours from the start of the treatment.

Locusta M. = test: Activity on Locusta M.; details: in vivo
warm-blooded animals = test: Toxicity toward warm-blooded animals / mammals; assay type: in vivo
Macrosiphum euphorbiae = test: Biological activity on Macrosiphum euphorbiae (Aphides); assay type: in vivo; details: potato plants, 24 h
Method: (1) Biological activity on Macrosiphum euphorbiae (Aphides)
Potato plants grown in pots were infested with adult females of aphides and, after several hours, were sprinked with an aqueous dispersion of the products under examination (see TABLE 5).
The percentage of mortality was assessed after 24 hours after the treatment (untreated plants=0).

Tetranychus urticae [3] = test: Biological activity on Tetranychus urticae eggs (Acari); assay type: in vivo; details: bean leaf discs, 144 h
Method: (6) Biological activity on Tetranychus urticae (Acari)
Small discs of bean leaves were infested with Acari eggs and were then sprinkled with an aqueous dispersion of the products under examination (see Table 5).
The mortality percentage was determined after 6 days from treatment (untreated leaf discs, mortality=0).

[4] = Toxicity on albino rats by oral administration; details: rat, in vivo
[5] = 0.01%o, Table 5, read-out: Activity (mortality class), Pieris B.
[6] = 48 h, read-out: Activity (mortality class), Leptinotarsa D.
[7] = 24 h, read-out: Activity (mortality class), Culex P. (larvae)
[8] = 24 h, read-out: Activity (mortality class), Tetranychus U. (adults)
[9] = 48 h, read-out: Activity (mortality class), Spodoptera L.
[10] = 1%o, Table 5, read-out: Activity (mortality class), Pieris B.
[11] = 48 h, 0.05%o, Table 5, read-out: Activity (mortality class), Leptinotarsa D.
[12] = 48 h, 1%o, Table 5, read-out: Activity (mortality class), Leptinotarsa D.
[13] = 24 h, 2 ppm, Table 5, read-out: Activity (mortality class), Culex P. (larvae)
[14] = 24 h, 0.01%o, Table 5, read-out: Activity (mortality class), Tetranychus U. (adults)
[15] = 24 h, 1%o, Table 5, read-out: Activity (mortality class), Tetranychus U. (adults)
[16] = 48 h, 1%o, Table 5, read-out: Activity (mortality class), Spodoptera L.
[17] = read-out: Activity (mortality class), Pieris B.
[18] = 24 h, 0.02 ppm, Table 5, read-out: Activity (mortality class), Culex P. (larvae)

Structure (SMILES)	mortality at 0.001 % (Pieris brassicae; [5]) [%]	mortality at 0.005 % [1, 6] [%]	mortality at 0.02 ppm (Culex pipiens; [7]) [%]	mortality at 0.001 % (Tetranychus urticae [2]; [8]) [%]	mortality at 0.005 % (Spodoptera littoralis; [9]) [%]	Activity (mortality class), Locusta M. (Locusta M.)	Activity (mortality class), Macrosiphum E. (Macrosiphum euphorbiae)	mortality at 0.1 % (Pieris brassicae; [10]) [%]	mortality at 0.005 % [1, 11] [%]	mortality at 0.1 % [1, 12] [%]	mortality at 2 ppm (Culex pipiens; [13]) [%]	mortality at 0.001 % (Tetranychus urticae [2]; [14]) [%]	mortality at 0.1 % (Tetranychus urticae [2]; [15]) [%]	Activity (mortality class), Tetranychus U. (eggs) (Tetranychus urticae [3])	mortality at 0.1 % (Spodoptera littoralis; [16]) [%]	mortality at 1 g/m2 (Blatta orientalis; 1 g/m^2, Table 5) [%]	mortality at 0.1 % [1, 6] [%]	mortality at 0.1 % (Tetranychus urticae [2]; [8]) [%]	mortality at 0.1 % (Spodoptera littoralis; [9]) [%]	LD50 [4] [mg/kg]	also measured
CCOP(=S)(OCC)Oc1nc(-c2ccccc2)nn1C [M 8172, 0,0-diethyl-0-[1-methyl-3-phenyl-1,2,4-triazolyl(5)]-thiophosphate, reference compound]	0 to 9	10 to 69	0 to 9	70 to 99	10 to 69	+ (70-99% of mort.)															mortality at 0.01 % ([1]; 48 h, 0,1%o, Table 4, read-out: % ge of activity, Leptinotarsa d.): 92%; mortality at 0.005 % ([1]; 48 h, 0,05%o, Table 4, read-out: % ge of activity, Leptinotarsa d.): 10%; mortality at 0.02 ppm (Culex pipiens; 24 h, 0,02 ppm, Table 4, read-out: % ge of activity, Culex p.): 0%; mortality at 0.2 ppm (Culex pipiens; 24 h, 0,2 ppm, Table 4, read-out: % ge of activity, Culex p.): 100%; mortality at 0.001 % (Tetranychus urticae [2]; 24 h, 0,01%o, Table 4, read-out: % ge of activity, Tetranycus u. (ad.)): 96%; mortality at 0.0005 % (Tetranychus urticae [2]; 24 h, 0,005%o, Table 4, read-out: % ge of activity, Tetranycus u. (ad.)): 76%; mortality at 0.01 % (Spodoptera littoralis; 48 h, 0,1%o, Table 4, read-out: % ge of activity, Spodoptera l.): 100%; mortality at 0.005 % (Spodoptera littoralis; 48 h, 0,05%o, Table 4, read-out: % ge of activity, Spodoptera l.): 15%; % ge of activity, Meloidogyne i. (Meloidogyne icognita): 40%; % ge of activity, Hylemyia b. (Hilemyia brassicae; 2 ppm): 48%; % ge of activity, Hylemyia b. (Hilemyia brassicae; 10 ppm): 98%; % ge of activity, Blatta o. (Blatta orientalis; 0,01 g/m^2): 20%; % ge of activity, Blatta o. (Blatta orientalis; 0,1 g/m^2): 100%; mortality at 0.01 g/m2 (Blatta orientalis; 0,01 g/m^2, Table 5): 10 to 69%; toxicity in words (warm-blooded animals): low toxicity towards mammals
CCCOP(=S)(OCCC)Oc1nc(C=C(Cl)Cl)nn1C [M 8448]	10 to 69					± (10-69% of mort.)	++ (100% of mortality)	100	100	100	100	100	100	++ (100% of mortality)	100	100					
CCCCn1nc(C=C(Cl)Cl)nc1OP(=S)(OCCC)OCCC [M 8475]						± (10-69% of mort.)	± (10-69% of mort.)							++ (100% of mortality)			100	10 to 69	10 to 69		mortality at 0.1 % (Pieris brassicae; [17]): 100%; mortality at 2 ppm (Culex pipiens; [7]): 100%; mortality at 1 g/m2 (Blatta orientalis): 0 to 9%
CC=C(Br)c1nc(OP(=S)(OCC)OCC)n(C)n1 [M 8549]	10 to 69							100	100	100	100	10 to 69	100		100	100				1000	
CCOP(=S)(OCC)Oc1nc(C(C)=C(Cl)Cl)nn1C [M 8550]	100							100	100	100	100	10 to 69	100		100	100				1700	mortality at 0.02 ppm (Culex pipiens; [18]): 70 to 99%; mortality at 0.01 g/m2 (Blatta orientalis; 0,01 g/m^2, Table 5): 10 to 69%
CCOP(=S)(OCC)Oc1nc(C(Cl)=C(Cl)Cl)nn1C [M 8560]		100			70 to 99						100	100					100	100	100	1200	mortality at 0.001 % (Pieris brassicae; [17]): 70 to 99%; mortality at 0.1 % (Pieris brassicae; [17]): 100%; mortality at 0.02 ppm (Culex pipiens; [18]): 10 to 69%; mortality at 1 g/m2 (Blatta orientalis): 100%
CC=C(Cl)c1nc(OP(=S)(OCC)OCC)n(C)n1 [M 8634]								100	100	100	100	10 to 69	100		100	100				1400	mortality at 0.005 % (Spodoptera littoralis; 48 h, 0.05%o, Table 5, read-out: Activity (mortality class), Spodoptera L.): 10 to 69%; mortality at 0.01 g/m2 (Blatta orientalis; 0,01 g/m^2, Table 5): 10 to 69%
C=CCn1nc(C=C(Cl)Cl)nc1OP(=S)(OCC)OCC [M 8764]		100	100	100	100	++ (100% of mortality)	++ (100% of mortality)	100						++ (100% of mortality)		100	100	100	100		mortality at 2 ppm (Culex pipiens; [7]): 100%
CCOP(=S)(OCC)Oc1nc(C(C)=C(Cl)Cl)nn1CC [M 9141]		100	70 to 99	10 to 69		++ (100% of mortality)	++ (100% of mortality)							++ (100% of mortality)			100	100	100		mortality at 0.1 % (Pieris brassicae; [17]): 100%; mortality at 2 ppm (Culex pipiens; [7]): 100%; mortality at 1 g/m2 (Blatta orientalis): 100%
CCOP(=S)(OCC)Oc1nc(Cl)n(C(C)C)n1 [Miral®, Diethyl-(1-isopropyl-5-chloro-1,2,4-triazole-3-yl) phosphoro-thionate, reference compound]																				60	
